Test results from ChEMBL document CHEMBL6127119 (J Med Chem, 2024).
Converted amounts (≈) assume the structure as drawn.

What was measured:
Format in all cases: functional
Settings in all cases: time 16-24 hrs
[1] = system: Pseudomonas aeruginosa; experiment: Antibacterial activity against Pseudomonas aeruginosa PAO1 incubated for 16 to 24 hrs by CLSI based broth microdilution method
[2] = system: Enterococcus faecium; experiment: Antibacterial activity against vancomycin-resistant Enterococcus faecium harboring VanB phenotype incubated for 16 to 24 hrs by CLSI based broth microdilution method
[3] = system: Enterococcus faecium; experiment: Antibacterial activity against vancomycin-resistant Enterococcus faecium harboring VanM phenotype incubated for 16 to 24 hrs by CLSI based broth microdilution method
[4] = system: Klebsiella pneumoniae; experiment: Antibacterial activity against Klebsiella pneumoniae clinical isolate incubated for 16 to 24 hrs by CLSI based broth microdilution method
[5] = system: Staphylococcus aureus; experiment: Antibacterial activity against vancomycin-intermediate Staphylococcus aureus incubated for 16 to 24 hrs by CLSI based broth microdilution method
[6] = system: Enterococcus faecium; experiment: Antibacterial activity against vancomycin-resistant Enterococcus faecium harboring VanA phenotype incubated for 16 to 24 hrs by CLSI based broth microdilution method
[7] = system: Staphylococcus aureus; experiment: Antibacterial activity against methicillin-susceptible Staphylococcus aureus incubated for 16 to 24 hrs by CLSI based broth microdilution method
[8] = system: Escherichia coli; experiment: Antibacterial activity against Escherichia coli AB1157 incubated for 16 to 24 hrs by CLSI based broth microdilution method
[9] = system: Acinetobacter baumannii; experiment: Antibacterial activity against Carbapenem-resistant Acinetobacter baumannii clinical isolate incubated for 16 to 24 hrs by CLSI based broth microdilution method

**Q.** Which MIC [1] does the source give for `CC(C)C[C@@H](N)C(=O)N[C@H]1C(=O)N[C@@H](CC(N)=O)C(=O)N[C@H]2C(=O)N[C@H]3C(=O)N[C@H](C(=O)N[C@H](C(=O)NCCCCCCN)c4cc(O)cc(O)c4-c4cc3ccc4O)[C@H](O)c3ccc(c(Cl)c3)Oc3cc2cc(c3O[C@@H]2O[C@H](CO)[C@@H](O)[C@H](O)[C@H]2O[C@H]2C[C@](C)(N)[C@H](O)[C@H](C)O2)Oc2ccc(cc2Cl)[C@H]1O` here?
**A.** 128 µg/mL (≈ 83.5 µM)

**Q.** And the MIC [2]?
**A.** 64 µg/mL (≈ 41.7 µM)

**Q.** And the MIC [3]?
**A.** 64 µg/mL (≈ 41.7 µM)

**Q.** And the MIC [4]?
**A.** > 128 µg/mL

**Q.** And the MIC [5]?
**A.** 8 µg/mL (≈ 5.22 µM)

**Q.** What about the MIC [6] of the same molecule?
**A.** 64 µg/mL (≈ 41.7 µM)

**Q.** And the MIC [7]?
**A.** 2 µg/mL (≈ 1.3 µM)

**Q.** And the MIC [8]?
**A.** 32 µg/mL (≈ 20.9 µM)

**Q.** What about the MIC [9] of the same molecule?
**A.** > 128 µg/mL

**Q.** How did the MIC [1] turn out when `CN[C@H](CC(C)C)C(=O)N[C@H]1C(=O)N[C@@H](CC(N)=O)C(=O)N[C@H]2C(=O)N[C@H]3C(=O)N[C@H](C(=O)N[C@H](C(=O)O)c4cc(O)c(CNCCCCCCCCN)c(O)c4-c4cc3ccc4O)[C@H](O)c3ccc(c(Cl)c3)Oc3cc2cc(c3O[C@@H]2O[C@H](CO)[C@@H](O)[C@H](O)[C@H]2O[C@H]2C[C@](C)(N)[C@H](O)[C@H](C)O2)Oc2ccc(cc2Cl)[C@H]1O` was run?
**A.** 128 µg/mL (≈ 79.7 µM)

**Q.** And the MIC [2]?
**A.** 32 µg/mL (≈ 19.9 µM)

**Q.** What about the MIC [3] of the same molecule?
**A.** 128 µg/mL (≈ 79.7 µM)

**Q.** And the MIC [4]?
**A.** > 128 µg/mL

**Q.** And the MIC [5]?
**A.** 8 µg/mL (≈ 4.98 µM)

**Q.** What about the MIC [6] of the same molecule?
**A.** 128 µg/mL (≈ 79.7 µM)

**Q.** What about the MIC [7] of the same molecule?
**A.** 4 µg/mL (≈ 2.49 µM)

**Q.** And the MIC [8]?
**A.** 128 µg/mL (≈ 79.7 µM)

**Q.** And the MIC [9]?
**A.** 128 µg/mL (≈ 79.7 µM)

**Q.** Which results are given for `CC(C)C[C@@H](N)C(=O)N[C@H]1C(=O)N[C@@H](CC(N)=O)C(=O)N[C@H]2C(=O)N[C@H]3C(=O)N[C@H](C(=O)N[C@H](C(=O)NCCNC(=O)[C@@H](N)CCCNC(=N)N)c4cc(O)cc(O)c4-c4cc3ccc4O)[C@H](O)c3ccc(c(Cl)c3)Oc3cc2cc(c3O[C@@H]2O[C@H](CO)[C@@H](O)[C@H](O)[C@H]2O[C@H]2C[C@](C)(N)[C@H](O)[C@H](C)O2)Oc2ccc(cc2Cl)[C@H]1O`?
**A.** MIC [1]: 128 µg/mL (≈ 78.4 µM); MIC [2]: 16 µg/mL (≈ 9.79 µM); MIC [3]: 64 µg/mL (≈ 39.2 µM); MIC [4]: > 128 µg/mL; MIC [5]: 2 µg/mL (≈ 1.22 µM); MIC [6]: 16 µg/mL (≈ 9.79 µM); MIC [7]: 1 µg/mL (≈ 0.612 µM); MIC [8]: 32 µg/mL (≈ 19.6 µM); MIC [9]: 64 µg/mL (≈ 39.2 µM)

**Q.** For `CC(C)C[C@@H](N)C(=O)N[C@H]1C(=O)N[C@@H](CC(N)=O)C(=O)N[C@H]2C(=O)N[C@H]3C(=O)N[C@H](C(=O)N[C@H](C(=O)NCCOCCOCCNC(=N)N)c4cc(O)cc(O)c4-c4cc3ccc4O)[C@H](O)c3ccc(c(Cl)c3)Oc3cc2cc(c3O[C@@H]2O[C@H](CO)[C@@H](O)[C@H](O)[C@H]2O[C@H]2C[C@](C)(N)[C@H](O)[C@H](C)O2)Oc2ccc(cc2Cl)[C@H]1O`, which MIC [1] is on record?
**A.** > 128 µg/mL

**Q.** And the MIC [2]?
**A.** 64 µg/mL (≈ 39.8 µM)

**Q.** What about the MIC [3] of the same molecule?
**A.** 64 µg/mL (≈ 39.8 µM)

**Q.** What about the MIC [4] of the same molecule?
**A.** > 128 µg/mL

**Q.** And the MIC [5]?
**A.** 4 µg/mL (≈ 2.49 µM)

**Q.** What about the MIC [6] of the same molecule?
**A.** 32 µg/mL (≈ 19.9 µM)

**Q.** What about the MIC [7] of the same molecule?
**A.** 1 µg/mL (≈ 0.622 µM)

**Q.** And the MIC [8]?
**A.** 16 µg/mL (≈ 9.95 µM)

**Q.** And the MIC [9]?
**A.** > 128 µg/mL

**Q.** What does the source list for `CC(C)C[C@@H](N)C(=O)N[C@H]1C(=O)N[C@@H](CC(N)=O)C(=O)N[C@H]2C(=O)N[C@H]3C(=O)N[C@H](C(=O)N[C@H](C(=O)NCCCCCCCCN)c4cc(O)cc(O)c4-c4cc3ccc4O)[C@H](O)c3ccc(c(Cl)c3)Oc3cc2cc(c3O[C@@H]2O[C@H](CO)[C@@H](O)[C@H](O)[C@H]2O[C@H]2C[C@](C)(N)[C@H](O)[C@H](C)O2)Oc2ccc(cc2Cl)[C@H]1O`?
**A.** MIC [1]: 128 µg/mL (≈ 82 µM); MIC [2]: 32 µg/mL (≈ 20.5 µM); MIC [3]: 32 µg/mL (≈ 20.5 µM); MIC [4]: > 128 µg/mL; MIC [5]: 4 µg/mL (≈ 2.56 µM); MIC [6]: 32 µg/mL (≈ 20.5 µM); MIC [7]: 1 µg/mL (≈ 0.64 µM); MIC [8]: 32 µg/mL (≈ 20.5 µM); MIC [9]: > 128 µg/mL

**Q.** Which MIC [1] does the source give for `CC(C)C[C@@H](N)C(=O)N[C@H]1C(=O)N[C@@H](CC(N)=O)C(=O)N[C@H]2C(=O)N[C@H]3C(=O)N[C@H](C(=O)N[C@H](C(=O)NCc4ccc(-c5ccc(CCN)cc5)cc4)c4cc(O)cc(O)c4-c4cc3ccc4O)[C@H](O)c3ccc(c(Cl)c3)Oc3cc2cc(c3O[C@@H]2O[C@H](CO)[C@@H](O)[C@H](O)[C@H]2O[C@H]2C[C@](C)(N)[C@H](O)[C@H](C)O2)Oc2ccc(cc2Cl)[C@H]1O` here?
**A.** > 128 µg/mL

**Q.** What about the MIC [2] of the same molecule?
**A.** 8 µg/mL (≈ 4.87 µM)

**Q.** And the MIC [3]?
**A.** 16 µg/mL (≈ 9.74 µM)

**Q.** What about the MIC [4] of the same molecule?
**A.** > 128 µg/mL

**Q.** What about the MIC [5] of the same molecule?
**A.** 1 µg/mL (≈ 0.608 µM)

**Q.** What about the MIC [6] of the same molecule?
**A.** 4 µg/mL (≈ 2.43 µM)

**Q.** And the MIC [7]?
**A.** 0.25 µg/mL (≈ 0.152 µM)

**Q.** What about the MIC [8] of the same molecule?
**A.** 16 µg/mL (≈ 9.74 µM)

**Q.** What about the MIC [9] of the same molecule?
**A.** > 128 µg/mL
